Assay results published in ChEMBL document CHEMBL1154382, “Preliminary SAR analysis of novel antiproliferative N(6),5'-bis-ureidoadenosine derivatives” (2009).

Columns and labels:
Assay type in all cases: functional
[1] = tested on: OVCAR-8; test: Antiproliferative activity against human OVCAR8 cells
[2] = tested on: UO-31; test: Antiproliferative activity against human UO31 cells
[3] = tested on: SNB-19; test: Antiproliferative activity against human SNB19 cells
[4] = tested on: A549; test: Antiproliferative activity against human A549 cells at 10 uM assessed as cell growth inhibition relative to control; conditions: values are per cent of control
[5] = tested on: HCT-116; test: Antiproliferative activity against human HCT116 cells
[6] = tested on: LOX IMVI; test: Antiproliferative activity against human LOXIMVI cells at 10 uM assessed as cell growth inhibition relative to control; conditions: values are per cent of control
[7] = tested on: HOP-62; test: Antiproliferative activity against human HOP62 cells at 10 uM assessed as cell growth inhibition relative to control; conditions: values are per cent of control
[8] = tested on: SNB-75; test: Antiproliferative activity against human SNB75 cells
[9] = tested on: SW-620; test: Antiproliferative activity against human SW620 cells
[10] = tested on: NCI-H460; test: Antiproliferative activity against human NCI-H460 cells at 10 uM assessed as cell growth inhibition relative to control; conditions: values are per cent of control
[11] = tested on: SN12C; test: Antiproliferative activity against human SN12C cells
[12] = tested on: UACC-257; test: Antiproliferative activity against human UACC257 cells at 10 uM assessed as cell growth inhibition relative to control; conditions: values are per cent of control
[13] = tested on: TK-10; test: Antiproliferative activity against human TK10 cells at 10 uM assessed as cell growth inhibition relative to control; conditions: values are per cent of control
[14] = tested on: NCI-H23; test: Antiproliferative activity against human NCI-H23 cells
[15] = tested on: PC-3; test: Antiproliferative activity against human PC3 cells at 10 uM assessed as cell growth inhibition relative to control; conditions: values are per cent of control
[16] = tested on: T47D; test: Antiproliferative activity against human T47D cells at 10 uM assessed as cell growth inhibition relative to control; conditions: values are per cent of control
[17] = tested on: K562; test: Antiproliferative activity against human K562 cells at 10 uM assessed as cell growth inhibition relative to control; conditions: values are per cent of control
[18] = tested on: HCT-15; test: Antiproliferative activity against human HCT15 cells at 10 uM assessed as cell growth inhibition relative to control; conditions: values are per cent of control
[19] = tested on: SK-MEL-5; test: Antiproliferative activity against human SK-MEL-5 cells at 10 uM assessed as cell growth inhibition relative to control; conditions: values are per cent of control
[20] = tested on: CAKI-1; test: Antiproliferative activity against human Caki1 cells
[21] = tested on: UACC-62; test: Antiproliferative activity against human UACC62 cells
[22] = tested on: SK-MEL-28; test: Antiproliferative activity against human SK-MEL-28 cells at 10 uM assessed as cell growth inhibition relative to control; conditions: values are per cent of control
[23] = tested on: 786-0; test: Antiproliferative activity against human 786-0 cells at 10 uM assessed as cell growth inhibition relative to control; conditions: values are per cent of control
[24] = tested on: SNB-19; test: Antiproliferative activity against human SNB19 cells at 10 uM assessed as cell growth inhibition relative to control; conditions: values are per cent of control
[25] = tested on: HCC 2998; test: Antiproliferative activity against human HCC2998 cells at 10 uM assessed as cell growth inhibition relative to control; conditions: values are per cent of control
[26] = tested on: HCT-15; test: Antiproliferative activity against human HCT15 cells
[27] = tested on: PC-3; test: Antiproliferative activity against human PC3 cells
[28] = tested on: MCF7; test: Antiproliferative activity against human MCF7 cells at 10 uM assessed as cell growth inhibition relative to control; conditions: values are per cent of control
[29] = tested on: OVCAR-5; test: Antiproliferative activity against human OVCAR5 cells at 10 uM assessed as cell growth inhibition relative to control; conditions: values are per cent of control
[30] = tested on: T47D; test: Antiproliferative activity against human T47D cells
[31] = tested on: UACC-62; test: Antiproliferative activity against human UACC62 cells at 10 uM assessed as cell growth inhibition relative to control; conditions: values are per cent of control
[32] = tested on: NCI-H226; test: Antiproliferative activity against human NCI-H226 cells
[33] = tested on: OVCAR-3; test: Antiproliferative activity against human OVCAR-3 cells
[34] = tested on: NCI-H522; test: Antiproliferative activity against human NCI-H522 cells
[35] = tested on: OVCAR-8; test: Antiproliferative activity against human OVCAR8 cells at 10 uM assessed as cell growth inhibition relative to control; conditions: values are per cent of control
[36] = tested on: UACC-257; test: Antiproliferative activity against human UACC257 cells
[37] = tested on: SNB-75; test: Antiproliferative activity against human SNB75 cells at 10 uM assessed as cell growth inhibition relative to control; conditions: values are per cent of control
[38] = tested on: SF-539; test: Antiproliferative activity against human SF539 cells
[39] = tested on: NCI-H23; test: Antiproliferative activity against human NCI-H23 cells at 10 uM assessed as cell growth inhibition relative to control; conditions: values are per cent of control
[40] = tested on: SK-OV-3; test: Antiproliferative activity against human SKOV3 cells at 10 uM assessed as cell growth inhibition relative to control; conditions: values are per cent of control
[41] = tested on: OVCAR-3; test: Antiproliferative activity against human OVCAR-3 cells at 10 uM assessed as cell growth inhibition relative to control; conditions: values are per cent of control
[42] = tested on: HCC 2998; test: Antiproliferative activity against human HCC2998 cells
[43] = tested on: SK-MEL-28; test: Antiproliferative activity against human SK-MEL-28 cells
[44] = tested on: OVCAR-5; test: Antiproliferative activity against human OVCAR5 cells
[45] = tested on: SK-MEL-2; test: Antiproliferative activity against human SK-MEL-2 cells at 10 uM assessed as cell growth inhibition relative to control; conditions: values are per cent of control
[46] = tested on: NCI-H322M; test: Antiproliferative activity against human NCI-H322M cells at 10 uM assessed as cell growth inhibition relative to control; conditions: values are per cent of control
[47] = tested on: M14; test: Antiproliferative activity against human M14 cells at 10 uM assessed as cell growth inhibition relative to control; conditions: values are per cent of control
[48] = tested on: UO-31; test: Antiproliferative activity against human UO31 cells at 10 uM assessed as cell growth inhibition relative to control; conditions: values are per cent of control
[49] = tested on: SF-268; test: Antiproliferative activity against human SF268 cells at 10 uM assessed as cell growth inhibition relative to control; conditions: values are per cent of control
[50] = tested on: ACHN; test: Antiproliferative activity against human ACHN cells at 10 uM assessed as cell growth inhibition relative to control; conditions: values are per cent of control

Which GI50 [1] does the source give for CCOC(=O)C[C@H]1[C@@H](O[Si](C)(C)C(C)(C)C)[C@H](n2cnc3c(NC(=O)Nc4ccccc4)ncnc32)O[C@@H]1COC(=O)NC here?
The GI50 was 10.3 µM.

What about the GI50 [2] of the same compound?
The GI50 was 5.7 µM.

What about the GI50 [3] of the same compound?
The GI50 was 49.2 µM.

What about the growth, % of control at 10 µM [4] of the same compound?
Its growth, % of control at 10 µM is 51%.

And the GI50 [5]?
The GI50 was 2.33 µM.

What about the growth, % of control at 10 µM [6] of the same compound?
The growth, % of control at 10 µM was 49%.

And the growth, % of control at 10 µM [7]?
The growth, % of control at 10 µM was 77%.

What about the GI50 [8] of the same compound?
Its GI50 is 10.3 µM.

What about the GI50 [9] of the same compound?
Its GI50 is 4.59 µM.

What about the growth, % of control at 10 µM [10] of the same compound?
The growth, % of control at 10 µM was 13%.

What about the GI50 [11] of the same compound?
The GI50 was 2.17 µM.

And the growth, % of control at 10 µM [12]?
Its growth, % of control at 10 µM is 60%.

What about the growth, % of control at 10 µM [13] of the same compound?
The growth, % of control at 10 µM was 88%.

And the GI50 [14]?
The GI50 was 12.9 µM.

What about the growth, % of control at 10 µM [15] of the same compound?
Its growth, % of control at 10 µM is 32%.

What about the growth, % of control at 10 µM [16] of the same compound?
The growth, % of control at 10 µM was 29%.

And the growth, % of control at 10 µM [17]?
The growth, % of control at 10 µM was 23%.

And the growth, % of control at 10 µM [18]?
Its growth, % of control at 10 µM is 52%.

What about the growth, % of control at 10 µM [19] of the same compound?
Its growth, % of control at 10 µM is 24%.

And the GI50 [20]?
Its GI50 is 3.72 µM.

What about the GI50 [21] of the same compound?
The GI50 was 15.8 µM.

What about the growth, % of control at 10 µM [22] of the same compound?
Its growth, % of control at 10 µM is 72%.

And the growth, % of control at 10 µM [23]?
The growth, % of control at 10 µM was 73%.

What about the growth, % of control at 10 µM [24] of the same compound?
The growth, % of control at 10 µM was 99%.

What about the growth, % of control at 10 µM [25] of the same compound?
Its growth, % of control at 10 µM is -9%.

What about the GI50 [26] of the same compound?
Its GI50 is 11.7 µM.

And the GI50 [27]?
Its GI50 is 2.87 µM.

What about the growth, % of control at 10 µM [28] of the same compound?
The growth, % of control at 10 µM was 12%.

What about the growth, % of control at 10 µM [29] of the same compound?
Its growth, % of control at 10 µM is 94%.

What about the GI50 [30] of the same compound?
The GI50 was 4.95 µM.

What about the growth, % of control at 10 µM [31] of the same compound?
Its growth, % of control at 10 µM is 65%.

And the GI50 [32]?
The GI50 was 11.8 µM.

What about the GI50 [33] of the same compound?
Its GI50 is 2.42 µM.

And the GI50 [34]?
Its GI50 is 9.58 µM.

And the growth, % of control at 10 µM [35]?
The growth, % of control at 10 µM was 74%.

What about the GI50 [36] of the same compound?
Its GI50 is 20.8 µM.

And the growth, % of control at 10 µM [37]?
The growth, % of control at 10 µM was 45%.

And the GI50 [38]?
Its GI50 is 11.5 µM.

What about the growth, % of control at 10 µM [39] of the same compound?
The growth, % of control at 10 µM was 88%.

What about the growth, % of control at 10 µM [40] of the same compound?
The growth, % of control at 10 µM was 95%.

And the growth, % of control at 10 µM [41]?
Its growth, % of control at 10 µM is 51%.

What about the GI50 [42] of the same compound?
The GI50 was 8.76 µM.

What about the GI50 [43] of the same compound?
Its GI50 is 7.77 µM.

And the GI50 [44]?
Its GI50 is 12.8 µM.

What about the growth, % of control at 10 µM [45] of the same compound?
The growth, % of control at 10 µM was 60%.

And the growth, % of control at 10 µM [46]?
Its growth, % of control at 10 µM is 91%.

And the growth, % of control at 10 µM [47]?
The growth, % of control at 10 µM was 57%.

And the growth, % of control at 10 µM [48]?
Its growth, % of control at 10 µM is 42%.

What about the growth, % of control at 10 µM [49] of the same compound?
Its growth, % of control at 10 µM is 60%.

And the growth, % of control at 10 µM [50]?
The growth, % of control at 10 µM was 26%.
